Results as given in patent US5252589A, “Benzocycloheptene derivative and process for preparation thereof” (Tanabe Seikayu Co., Ltd., priority 1992, dated 1993).
Where “and” joins values, the source holds several entries; their conditions need not be identical. Equal entries are not always repeated.

Key:
[1] = Acute oral toxicity in mice; assay type: in vivo; settings: 500 mg/kg
Protocol: For example, when (±)-cis-5-(2-thienyl)-7-isopropylamino-6,7,8,9-tetrahydro-5H-benzocyclohepten-5-ol was orally administered to mice at a dose of 500 mg/kg, no mouse died two days after the administration thereof.

urinary bladder = experiment: Inhibitory effect on urinary bladder contractions (carbachol-induced, isolated rat urinary bladder); settings: Tyrode solution 37° C., contraction by 1×10^-5 M carbachol, compound added 5 minutes before carbachol, read-out: IC50, concentration of the test compound required to induce 50% inhibition of the pressure
Protocol: (Inhibitory effect on urinary bladder contractions)
Rats (body weight: 250 to 450 g) were used as the test animals. […] Urinary bladder was filled with 0.8 ml of a physiological saline solution. An ureteral catheter was inserted into the urinary bladder and one end of the catheter was connected to a pressure transducer. The change in intravesical pressure of the bladder was recorded. Contraction was induced by adding 1×10^-5 M carbachol at 30 minutes intervals. After the contraction became stable, the test compound was added to the Tyrode solution 5 minutes before the addition of carbachol.

Molecule	mortality two days after oral administration [1]	IC50 (urinary bladder)
(±)-cis-5-(2-thienyl)-7-isopropylamino-6,7,8,9-tetrahydro-5H-benzocyclohepten-5-ol	no mouse died	2600 nM and 2200 nM
O[C@@]1(c2cccs2)C[C@@H](N2CCCCC2)CCc2ccccc21 (racemic) [(±)-cis-5-(2-thienyl)-7-(1-piperidinyl)-6,7,8,9-tetrahydro-5H-benzocyclohepten-5-ol]	–	700 nM
CCN(CC)[C@H]1CCc2ccccc2[C@](O)(c2cccs2)C1 (racemic) [(±)-cis-5-(2-thienyl)-7-diethylamino-6,7,8,9-tetrahydro-5H-benzocyclohepten-5-ol]	–	1100 nM
